Data reported in patent US20130310256A1, “HERBICIDAL COMPOSITIONS COMPRISING 4-AMINO-3-CHLORO-5-FLUORO-6-(4-CHLORO-2-FLUORO-3-METHOXYPHENYL) PYRIDINE-2-CARBOXYLIC ACID OR A DERIVATIVE THEREOF AND VLCFA AND LIPID SYNTHESIS INHIBITING HERBICIDES” (DOW AGROSCIENCES LLC, priority 2008, published 2013).

Legend:
[1] = system: SINAR; test: Example III: post-emergence foliar-applied weed control in cereal crops, greenhouse; format: in vivo, Sinapis arvensis L.; settings: 21 DAA
Description: (§1) Seeds of the desired test plant species were planted in Sun Gro MetroMix® 306 planting mixture, which typically has a pH of 6.0 to 6.8 and an organic matter content of about 30 percent, in plastic pots with a surface area of 103.2 square centimeters (cm^2). When required to ensure good germination and healthy plants, a fungicide treatment and/or other chemical or physical treatment was applied. The plants were grown for 7-36 days in a greenhouse with an approximate 14 hour photoperiod which was maintained at about 18° C. during the day and 17° C. during the night. Nutrients and water were added on a regular basis and supplemental lighting was provided with overhead metal halide 1000-Watt lamps as necessary. The plants were employed for testing when they reached the second or third true leaf stage.
(§2) Treatments consisted of the benzyl ester of 4-amino-3-chloro-5-fluoro-6-(4-chloro-2-fluoro-3-methoxy-phenyl)pyridine-2-carboxylic acid (Compound A), formulated as an SC (suspension concentrate), and a second cereal herbicide alone and in combination.
(§3) Measured aliquots of the benzyl ester of 4-amino-3-chloro-5-fluoro-6-(4-chloro-2-fluoro-3-methoxy-phenyl)pyridine-2-carboxylic acid (Compound A) were placed in 25 milliliter (mL) glass vials and diluted in a volume of 1.25% (v/v) Agri-dex crop oil concentrated to obtain stock solutions. Compound requirements are based upon a 12 mL application volume at a rate of 187 liters per hectare (L/ha). Spray solutions of the second cereal herbicide and experimental compound mixtures were prepared by adding the stock solutions to the appropriate amount of dilution solution to form 12 mL spray solution with active ingredients in two- and three-way combinations. Formulated compounds were applied to the plant material with an overhead Mandel track sprayer equipped with an 8002E nozzle calibrated to deliver 187 L/ha over an application area of 0.503 square meters (m^2) at a spray height of 18 inches (46 cm) above average plant canopy. Control plants were sprayed in the same manner with the solvent blank.
(§4) The treated plants and control plants were placed in a greenhouse as described above and watered by sub-irrigation to prevent wash-off of the test compounds. After 20-22 days, the condition of the test plants as compared with that of the control plants was determined visually and scored on a scale of 0 to 100 percent where 0 corresponds to no injury and 100 corresponds to complete kill.
(§5) Colby's equation was used to determine the herbicidal effects expected from the mixtures (Colby, S. R. 1967. Calculation of the synergistic and antagonistic response of herbicide combinations. Weeds 15:20-22.).

[2] = system: PAPRH; test: as above; format: in vivo, Papaver rhoeas L.; settings: 21 DAA
Description: as §1, §2, §3, §4, §5

[3] = system: STEME; test: as above; format: in vivo, Stellaria media (L.) Vill.; settings: 21 DAA
Description: as §1, §2, §3, §4, §5

[4] = system: KCHSC; test: as above; format: in vivo, Kochia scoparia (L.) Schrad.; settings: 21 DAA
Description: as §1, §2, §3, §4, §5

[5] = system: CHEAL; test: as above; format: in vivo, Chenopodium album L.; settings: 21 DAA
Description: as §1, §2, §3, §4, §5

[6] = system: BRAPP; test: Example I: postemergence foliar-applied weed control, direct seeded rice weeds, greenhouse; format: in vivo; settings: foliar
Description: Seeds or nutlets of the desired test plant species were planted in a soil matrix prepared by mixing a loam or sandy loam soil (e.g., 28.6 percent silt, 18.8 percent clay, and 52.6 percent sand, with a pH of about 5.8 and an organic matter content of about 1.8 percent) and calcareous grit in an 80 to 20 ratio. The soil matrix was contained in plastic pots with a volume of 1 quart and a surface area of 83.6 square centimeters (cm^2). When required to ensure good germination and healthy plants, a fungicide treatment and/or other chemical or physical treatment was applied. The plants were grown for 8-22 days in a greenhouse with an approximate 14 hr photoperiod which was maintained at about 29° C. during the day and 26° C. during the night. Nutrients (Peters Excel® 15-5-15 5-Ca 2-Mg and iron chelate) were applied in the irrigation solution as needed and water was added on a regular basis. Supplemental lighting was provided with overhead metal halide 1000-Watt lamps as necessary. The plants were employed for testing when they reached the first through fourth true leaf stage.
Treatments consisted of the acid or esters of 4-amino-3-chloro-5-fluoro-6-(4-chloro-2-fluoro-3-methoxy-phenyl)pyridine-2-carboxylic acid (Compound A), each formulated as an SC (suspension concentrate), and various herbicidal components alone and in combination. Forms of compound A were applied on an acid equivalent basis.
Other herbicidal components were applied on an active ingredient basis and included very long chain fatty acid (VLCFA) synthesis-inhibiting and fatty acid/lipid synthesis-inhibiting herbicides acetochlor (technical grade material), acetochlor+dichlormid formulated as Topnotch®, pretilachlor (technical grade material), butachlor formulated as Butachlor EC, fentrazamide formulated as Fentrazamide EC, thiobencarb formulated as Bolero® 8EC, cafenstrole formulated as Himeadow® WP or Lapost® Flowable, benfuresate formulated as Full Shot®, dimethenamid-P formulated as Outlook®, indanofan (technical grade material), flufenacet formulated as Define® DF, mefenacet (technical grade material), S-metolachlor formulated as Dual® II Magnum, pethoxamid formulated as Successor® 600, and pyroxasulfone (technical grade material).
Treatment requirements were calculated based upon the rates being tested, the concentration of active ingredient or acid equivalent in the formulation, and a 12 mL application volume at a rate of 187 L/ha.
For treatments comprised of formulated compounds, measured amounts of compounds were placed individually in 25 mL glass vials and diluted in a volume of 1.25% (v/v) Agri-Dex® crop oil concentrated to obtain 12× stock solutions. […] Application solutions were prepared by adding an appropriate amount of each stock solution (e.g., 1 mL) and diluted to the appropriate final concentrations with the addition of 10 mL of an aqueous mixture of 1.25% (v/v) crop oil concentrate so that the final spray solutions contained 1.25+/−0.05% (v/v) crop oil concentrate.
For treatments comprised of technical compounds, weighed amounts can be placed individually in 25 mL glass vials and dissolved in a volume of 97:3 v/v acetone/DMSO to obtain 12× stock solutions. […] Application solutions can be prepared by adding an appropriate amount of each stock solution (e.g., 1 mL) and diluted to the appropriate final concentrations with the addition of 10 mL of an aqueous mixture of 1.5% (v/v) crop oil concentrate so that the final spray solutions contain 1.25% (v/v) crop oil concentrate. When technical materials are used, the concentrated stock solutions can be added to the spray solutions so that the final acetone and DMSO concentrations of the application solutions are […], respectively. […]

[7] = system: CIRAR; test: Example III: post-emergence foliar-applied weed control in cereal crops, greenhouse; format: in vivo, Cirsium arvense (L.) Scop.; settings: 21 DAA
Description: as §1, §2, §3, §4, §5

[8] = system: SASKR; test: as above; format: in vivo, Salsola tragus L.; settings: 21 DAA
Description: as §1, §2, §3, §4, §5

[9] = system: GALAP; test: as above; format: in vivo, Galium aparine L.; settings: 21 DAA
Description: as §1, §2, §3, §4, §5

CC(C)N(C(=O)COc1nnc(C(F)(F)F)s1)c1ccc(F)cc1 [Flufenacet, N-(4-fluorophenyl)-N-(1-methylethyl)-2-[[5-(trifluoromethyl)-1,3,4-thiadiazol-2-yl]oxy]acetamide]
Visual Weed Control SINAR Obs ([1]; 60 gai/ha): 5%
Visual Weed Control SINAR Obs ([1]; 120 gai/ha): 8%
Visual Weed Control PAPRH Obs ([2]; 60 gai/ha): 0%
Visual Weed Control PAPRH Obs ([2]; 120 gai/ha): 5%
Visual Weed Control PAPRH Obs ([2]; 240 gai/ha): 7%
Visual Weed Control STEME Obs ([3]; 60 gai/ha): 0%
Visual Weed Control STEME Obs ([3]; 120 gai/ha): 5%
Visual Weed Control STEME Obs ([3]; 240 gai/ha): 42%
Visual Weed Control KCHSC Obs ([4]; 60 gai/ha): 5%
Visual Weed Control KCHSC Obs ([4]; 120 gai/ha): 5%
Visual Weed Control KCHSC Obs ([4]; 240 gai/ha): 17%
Visual Weed Control CHEAL Obs ([5]; 60 gai/ha): 0%
Visual Weed Control CHEAL Obs ([5]; 120 gai/ha): 0%
Visual Weed Control (%) - 22 DAA BRAPP Obs ([6]; 187.5 gai/ha): 10%
Visual Weed Control (%) - 22 DAA BRAPP Obs ([6]; 375 gai/ha): 20%
Visual Weed Control (%) - 22 DAA BRAPP Obs ([6]; 750 gai/ha): 40%
Visual Weed Control CIRAR Obs ([7]; 60 gai/ha): 0%
Visual Weed Control CIRAR Obs ([7]; 120 gai/ha): 0%
Visual Weed Control CIRAR Obs ([7]; 240 gai/ha): 17%
Visual Weed Control SASKR Obs ([8]; 60 gai/ha): 5%
Visual Weed Control SASKR Obs ([8]; 120 gai/ha): 5%
Visual Weed Control SASKR Obs ([8]; 240 gai/ha): 13%

CCCN(CCC)C(=O)SCc1ccccc1 [Prosulfocarb, S-(phenylmethyl) dipropylcarbamothioate]
Visual Weed Control SINAR Obs ([1]; 1000 gai/ha): 13%
Visual Weed Control SINAR Obs ([1]; 2000 gai/ha): 18%
Visual Weed Control GALAP Obs ([9]; 1000 gai/ha): 15%
Visual Weed Control GALAP Obs ([9]; 2000 gai/ha): 40%
Visual Weed Control GALAP Obs ([9]; 4000 gai/ha): 67%
Visual Weed Control PAPRH Obs ([2]; 1000 gai/ha): 5%
Visual Weed Control PAPRH Obs ([2]; 2000 gai/ha): 10%
Visual Weed Control PAPRH Obs ([2]; 4000 gai/ha): 13%
Visual Weed Control STEME Obs ([3]; 1000 gai/ha): 0%
Visual Weed Control STEME Obs ([3]; 2000 gai/ha): 10%
Visual Weed Control STEME Obs ([3]; 4000 gai/ha): 73%
Visual Weed Control KCHSC Obs ([4]; 1000 gai/ha): 10%
Visual Weed Control KCHSC Obs ([4]; 2000 gai/ha): 15%
Visual Weed Control KCHSC Obs ([4]; 4000 gai/ha): 75%
Visual Weed Control CHEAL Obs ([5]; 1000 gai/ha): 10%
Visual Weed Control CHEAL Obs ([5]; 2000 gai/ha): 15%
Visual Weed Control SASKR Obs ([8]; 1000 gai/ha): 5%
Visual Weed Control SASKR Obs ([8]; 2000 gai/ha): 5%
Visual Weed Control SASKR Obs ([8]; 4000 gai/ha): 63%
